Experimental data published in publication PMC6001238, “Iterative Chemical Engineering of Vancomycin Leads to Novel Vancomycin Analogs With a High in Vitro Therapeutic Index” (Frontiers in Microbiology, 2018).
Converted amounts (≈) assume the structure as drawn.

Tests used:
[1] = system: MRSA KS89; assay: MIC, broth microdilution, MRSA KS89; format: cell-based, Staphylococcus aureus; settings: for MIC-fold improvement vs. vancomycin: MRSA KS8, ratio of MIC of vancomycin and MIC of analogue; for MIC: Staphylococcus aureus MRSA KS8, read-out: MIC
Summary of the method: (§1)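 Broth microdilution per CLSI; controls = ultrapure water, non-inoculated broth. One set: + vancomycin 10 μM final alongside test analogue/control drug.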

[2] = system: S. aureus VISA/HIP5827; assay: MIC, broth microdilution, vancomycin-intermediate S. aureus VISA HIP5827; format: cell-based, Staphylococcus aureus; settings: for MIC: Staphylococcus aureus VISA/HIP5827, read-out: MIC; for MIC-fold improvement vs. vancomycin: VISA/HIP5827, ratio of MIC of vancomycin and MIC of analogue
Summary of the method: as §1

[3] = system: human T-lymphocyte (CEM) cells; assay: Cytostatic activity, CEM cell proliferation; format: cell-based; settings: mean ± SD of three experiments; highest concentration tested 250 µM; 3 days; read-out: Toxicity (IC50) CEM
Summary of the method: (§2)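 Readout: Coulter cell number after drug exposure at 37°C. Durations differ by line (L1210 2 days; CEM 3 days; HeLa 4 days). Stock suspension 300,000–500,000 cells/mL, diluted by mixing with compound. Endpoint: IC50 vs negative control.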

[4] = system: E. faecalis VRE 29; assay: MIC, broth microdilution, vancomycin-resistant E. faecalis VRE 29 (VanA); format: cell-based, Enterococcus faecalis; settings: for MIC: Enterococcus faecalis VRE 29 (vancomycin-resistant), read-out: MIC; for MIC-fold improvement vs. vancomycin: VRE 29, ratio of MIC of vancomycin and MIC of analogue
Summary of the method: as §1

[5] = system: E. faecalis VSE 1; assay: MIC, broth microdilution, vancomycin-sensitive E. faecalis (VSE 1); format: cell-based, Enterococcus faecalis; settings: for MIC: Enterococcus faecalis VSE 1 (vancomycin-sensitive), read-out: MIC; for MIC-fold improvement vs. vancomycin: VSE 1, ratio of MIC of vancomycin and MIC of analogue
Summary of the method: as §1

[6] = system: E. faecalis VRE 6; assay: MIC, broth microdilution, vancomycin-resistant E. faecalis VRE 6 (VanA); format: cell-based, Enterococcus faecalis; settings: for MIC: Enterococcus faecalis VRE 6 (vancomycin-resistant), read-out: MIC; for MIC-fold improvement vs. vancomycin: VRE 6, ratio of MIC of vancomycin and MIC of analogue
Summary of the method: as §1

[7] = system: Murine leukemia (L1210) cells; assay: Cytostatic activity, L1210 cell proliferation; format: cell-based; settings: mean ± SD of three experiments; highest concentration tested 250 µM; 2 days; read-out: Toxicity (IC50) L1210
Summary of the method: as §2

[8] = system: E. faecalis VRE 53; assay: MIC, broth microdilution, vancomycin-resistant E. faecalis VRE 53 (VanA); format: cell-based, Enterococcus faecalis; settings: for MIC: Enterococcus faecalis VRE 53 (vancomycin-resistant), read-out: MIC; for MIC-fold improvement vs. vancomycin: VRE 53, ratio of MIC of vancomycin and MIC of analogue
Summary of the method: as §1

[9] = system: MRSA KS6; assay: MIC, broth microdilution, MRSA KS6; format: cell-based, Staphylococcus aureus; settings: for MIC-fold improvement vs. vancomycin: MRSA KS6, ratio of MIC of vancomycin and MIC of analogue; for MIC: Staphylococcus aureus MRSA KS6, read-out: MIC
Summary of the method: as §1

[10] = system: MRSA KS2; assay: MIC, broth microdilution, MRSA KS2; format: cell-based, Staphylococcus aureus; settings: for MIC-fold improvement vs. vancomycin: MRSA KS2, ratio of MIC of vancomycin and MIC of analogue; for MIC: Staphylococcus aureus MRSA KS2, read-out: MIC
Summary of the method: as §1

[11] = system: S. aureus VRSA; assay: MIC, broth microdilution, vancomycin-resistant S. aureus (VRSA); format: cell-based, Staphylococcus aureus; settings: for MIC: Staphylococcus aureus VRSA, read-out: MIC; for MIC-fold improvement vs. vancomycin: VRSA, ratio of MIC of vancomycin and MIC of analogue
Summary of the method: as §1

[12] = system: E. faecalis VRE 37; assay: MIC, broth microdilution, vancomycin-resistant E. faecalis VRE 37 (VanA); format: cell-based, Enterococcus faecalis; settings: for MIC: Enterococcus faecalis VRE 37 (vancomycin-resistant), read-out: MIC; for MIC-fold improvement vs. vancomycin: VRE 37, ratio of MIC of vancomycin and MIC of analogue
Summary of the method: as §1

[13] = system: S. aureus VSSA (ATCC 6538); assay: MIC, broth microdilution, vancomycin-sensitive S. aureus (VSSA/MSSA, ATCC 6538); format: cell-based, Staphylococcus aureus; settings: for MIC: Staphylococcus aureus VSSA, read-out: MIC; for MIC-fold improvement vs. vancomycin: VSSA, ratio of MIC of vancomycin and MIC of analogue
Summary of the method: as §1

[14] = system: MRSA KS1; assay: MIC, broth microdilution, MRSA KS1; format: cell-based, Staphylococcus aureus; settings: for MIC-fold improvement vs. vancomycin: MRSA KS1, ratio of MIC of vancomycin and MIC of analogue; for MIC: Staphylococcus aureus MRSA KS1, read-out: MIC
Summary of the method: as §1

[15] = system: L1210, CEM and HeLa cell lines; assay: Cytostatic activity, average or summary over L1210, CEM and HeLa; format: cell-based; settings: average of L1210, CEM and HeLa; read-out: Toxicity (IC50) Average
Summary of the method: as §2

[16] = system: human cervix carcinoma (HeLa) cells; assay: Cytostatic activity, HeLa cell proliferation; format: cell-based; settings: mean ± SD of three experiments; highest concentration tested 250 µM; 4 days; read-out: Toxicity (IC50) HeLa
Summary of the method: as §2

SMILES	MIC-fold improvement vs. vancomycin [1]	MIC [1]	MIC [2]	MIC-fold improvement vs. vancomycin [2]	IC50 [3]	MIC [4]	MIC-fold improvement vs. vancomycin [4]	MIC [5]	MIC-fold improvement vs. vancomycin [5]	MIC [6]	MIC-fold improvement vs. vancomycin [6]	IC50 [7]	MIC [8]	MIC-fold improvement vs. vancomycin [8]	MIC-fold improvement vs. vancomycin [9]	MIC [9]	MIC-fold improvement vs. vancomycin [10]	MIC [10]	MIC [11]	MIC-fold improvement vs. vancomycin [11]	further results
CN[C@H](CC(C)C)C(=O)N[C@H]1C(=O)N[C@@H](CC(N)=O)C(=O)N[C@H]2C(=O)N[C@H]3C(=O)N[C@H](C(=O)N[C@H](C(=O)NCCNC(=O)/C=C/c4ccc(NS(=O)(=O)c5ccc(C(C)C)cc5)cc4)c4cc(O)cc(O)c4-c4cc3ccc4O)[C@H](O)c3ccc(c(Cl)c3)Oc3cc2cc(c3O[C@@H]2O[C@H](CO)[C@@H](O)[C@H](O)[C@H]2O[C@H]2C[C@](C)(N)[C@H](O)[C@H](C)O2)Oc2ccc(cc2Cl)[C@H]1O [Vanc-56]	2	0.39 µM (≈ 0.709 µg/mL)	0.78 µM (≈ 1.42 µg/mL)	8	≥ 250 µM	6.25 µM (≈ 11.4 µg/mL)	64	0.39 µM (≈ 0.709 µg/mL)	4	3.13 µM (≈ 5.69 µg/mL)	64	> 250 µM	6.25 µM (≈ 11.4 µg/mL)	64	4	0.20 µM (≈ 0.364 µg/mL)	4	0.20 µM (≈ 0.364 µg/mL)	0.39 µM (≈ 0.709 µg/mL)	256	MIC [12]: 6.25 µM (≈ 11.4 µg/mL); MIC-fold improvement vs. vancomycin [12]: 64; MIC [13]: 0.39 µM (≈ 0.709 µg/mL); MIC-fold improvement vs. vancomycin [13]: 2; MIC-fold improvement vs. vancomycin [14]: 1; MIC [14]: 0.78 µM (≈ 1.42 µg/mL); IC50 [15]: 201 µM; IC50 [16]: 104 ± 17 µM
CNC(CC(C)C)C(=O)NC1C(=O)NC(CC(N)=O)C(=O)NC2C(=O)NC3C(=O)NC(C(=O)NC(C(=O)NCCCNC(=O)c4ccc5ccccc5n4)c4cc(O)cc(O)c4-c4cc3ccc4O)C(O)c3ccc(c(Cl)c3)Oc3cc2cc(c3OC2OC(CO)C(O)C(O)C2OC2CC(C)(N)C(O)C(C)O2)Oc2ccc(cc2Cl)C1O (stereo not drawn) [Vanc-27]	1	0.78 µM (≈ 1.3 µg/mL)	0.39 µM (≈ 0.648 µg/mL)	16	229 ± 30 µM	12.5 µM (≈ 20.8 µg/mL)	32	0.39 µM (≈ 0.648 µg/mL)	4	3.13 µM (≈ 5.2 µg/mL)	64	> 250 µM	25 µM (≈ 41.5 µg/mL)	16	2	0.39 µM (≈ 0.648 µg/mL)	2	0.39 µM (≈ 0.648 µg/mL)	6.25 µM (≈ 10.4 µg/mL)	16	MIC [12]: 12.5 µM (≈ 20.8 µg/mL); MIC [13]: 0.39 µM (≈ 0.648 µg/mL); MIC-fold improvement vs. vancomycin [13]: 2; MIC-fold improvement vs. vancomycin [14]: 2; MIC [14]: 0.39 µM (≈ 0.648 µg/mL); IC50 [15]: 185 µM; IC50 [16]: 76 ± 8 µM
CNC(CC(C)C)C(=O)NC1C(=O)NC(CC(N)=O)C(=O)NC2C(=O)NC3C(=O)NC(C(=O)NC(C(=O)NCCCNC(=O)c4ccc5cc(NS(=O)(=O)c6ccc(C)cc6)ccc5c4)c4cc(O)cc(O)c4-c4cc3ccc4O)C(O)c3ccc(c(Cl)c3)Oc3cc2cc(c3OC2OC(CO)C(O)C(O)C2OC2CC(C)(N)C(O)C(C)O2)Oc2ccc(cc2Cl)C1O (stereo not drawn) [Vanc-65]	2	0.39 µM (≈ 0.713 µg/mL)	0.78 µM (≈ 1.43 µg/mL)	8	≥ 250 µM	6.25 µM (≈ 11.4 µg/mL)	64	0.39 µM (≈ 0.713 µg/mL)	4	3.13 µM (≈ 5.72 µg/mL)	64	> 250 µM	25 µM (≈ 45.7 µg/mL)	16	2	0.39 µM (≈ 0.713 µg/mL)	4	0.20 µM (≈ 0.366 µg/mL)	0.39 µM (≈ 0.713 µg/mL)	256	MIC [12]: 6.25 µM (≈ 11.4 µg/mL); MIC-fold improvement vs. vancomycin [12]: 64; MIC [13]: 0.39 µM (≈ 0.713 µg/mL); MIC-fold improvement vs. vancomycin [13]: 2; MIC-fold improvement vs. vancomycin [14]: 1; MIC [14]: 0.78 µM (≈ 1.43 µg/mL); IC50 [15]: 185 µM; IC50 [16]: 54 ± 45 µM
CN[C@H](CC(C)C)C(=O)N[C@H]1C(=O)N[C@@H](CC(N)=O)C(=O)N[C@H]2C(=O)N[C@H]3C(=O)N[C@H](C(=O)N[C@H](C(=O)NCC(=O)Nc4cc(OC)cc(OC)c4)c4cc(O)cc(O)c4-c4cc3ccc4O)[C@H](O)c3ccc(c(Cl)c3)Oc3cc2cc(c3O[C@@H]2O[C@H](CO)[C@@H](O)[C@H](O)[C@H]2O[C@H]2C[C@](C)(N)[C@H](O)[C@H](C)O2)Oc2ccc(cc2Cl)[C@H]1O [Vanc-17]	1	0.78 µM (≈ 1.28 µg/mL)	0.78 µM (≈ 1.28 µg/mL)	8	> 250 µM	25 µM (≈ 41 µg/mL)	16	0.78 µM (≈ 1.28 µg/mL)	2	6.25 µM (≈ 10.3 µg/mL)	32	> 250 µM	25 µM (≈ 41 µg/mL)	16	1	0.78 µM (≈ 1.28 µg/mL)	2	0.39 µM (≈ 0.64 µg/mL)	12.5 µM (≈ 20.5 µg/mL)	8	MIC [12]: 50 µM (≈ 82.1 µg/mL); MIC-fold improvement vs. vancomycin [12]: 8; MIC [13]: 0.78 µM (≈ 1.28 µg/mL); MIC-fold improvement vs. vancomycin [13]: 1; MIC-fold improvement vs. vancomycin [14]: 1; MIC [14]: 0.78 µM (≈ 1.28 µg/mL); IC50 [15]: 206 µM; IC50 [16]: 119 ± 48 µM
